Among the data in patent US20030171406A1, “Medicinal compositions containing propenone derivatives” (priority 2000, published 2003) are EC50 values, retold here.

Converted amounts (≈) assume the structure as drawn. Like-named read-outs stand apart in the source and are kept apart here.

Common to all, as to format: cell-based
One test concerns HIV (HTLV-IIIB strain). Put plainly: MTT assay, MT-4 cells infected with HIV. Particulars: Human immunodeficiency virus 1, MT4, 120 h, 5 days, inhibits 50% of cell damage caused by virus, read-out: EC50. The procedure: The inhibitory effects of each anti-human immunodeficiency virus active substance against human immunodeficiency virus have been determined by MTT assay described below.
(1) Human T cell strain Molt-4 clone 8 persistently infected HIV (HTLV-IIIB strain) was cultivated in RPMI-1640 medium supplemented with 10% fatal bovine serum, and supernatant was filtered, measured RT activity, and stored at −80° C. On the other hand, each human anti-immunodeficiency virus active substance was diluted to fixed concentration in culture medium, they were plated to 96-well microtiter plate. Subsequently, 100 μL (3.5×10^4 cells) of MT-4 cell suspension was plated to 96-well microtiter plate, and then above mentioned supernatant containing HIV, which was diluted by culture medium, was added 50 μL (60 pfu (plaque forming unit.)) to 96-well microtiter plate.
(2) After cultivation at 37° C. for 5 days in CO2 incubator, into all well was added 30 μL per well 3-(4,5-[…])-2,5-diphenyltetrazolium bromide (MTT) 5 mg/mL) and PBS, and then incubated for 1 h.
In this time, alive cells reduced MTT and formazan was precipitated, therefore, 150 μL of cell supernatants were removed from all wells, and then 150 μL of lysate (10% triton X-100 and 0.4% (v/v) HCl-containing isopropanol) was added, and formazan was eluated on a plate shaker.

A further test deals with HIV-1 NL432. Put plainly: Antiviral assay in infected Molt-4 cells, virus measured by RT activity. Particulars: read-out: EC50 HIV-1 NL432. The procedure: (§1) (1) Molt-4 cells (2×10^6 cells) were infected with HIV-1 NL432 (4×10^6 cpm), HIV-2 Rod (8×10^6 cpm), SIVmac MA239 (8×10^6 cpm) and SIVagm SA212 (8×10^6 cpm), and incubated for 1 hr at room temperature.
(§2) {circle over (1)} Preparation of HIV-1 virus: SW480 cells were cultured in DMEM medium supplemented with 10% fetal bovine serum using 25 cm^2 flask. HIV-1 infectious molecular DNA (40 μg), pNL432, transfected to the cells by calcium phosphate coprecipitation method, and the supernatant (2 mL) at 2-3 days post-transfection was infected to M8166 cells (1×10^6 cells). The cells were cultured in 10 mL RPMI medium supplemented with 10% fetal bovine serum in CO2 incubator at 37° C. After apparent giant cells were observed, the cells were removed by centrifugation and then the supernatant was filtrated by 0.45 μm filter, measured RT activity, and stored at −80° C. as HIV-1 stock virus.
(§3) {circle over (2)} The cells were washed twice to remove the viruses and suspended in 10 mL RPMI medium supplemented with 10% fetal bovine serum. The infected cells (100 μL) were plated in 96-well microtiter plates containing with the serial 5 fold dilution of compounds (100 μL) and cultured in CO2 incubator at 37° C.
(§4) {circle over (3)} The supernatant at 5 days postinfection was harvested and measured the amount of the virus by RT activity.
(§5) Preparation of the solution for RT assay:
(§6) A reaction mixture (90 μL) were contained 50 mM Tris-HCl, pH 8.3, 150 mM KCl, 10 mM MgCl2, 0.1% Nonidet P-40, 10 mM DTT (dithiothreitol), 5 μg/mL poly(rA), 5 μg/mL (dT)12-18 and 1 μCi [^3H] dTTP at final concentration after mixture of a sample (10 μL).
(§7) The procedure of RT assay:
(§8) 1. 10 μL of sample was plated to 3 wells of 96-well microtiter plate (triplicate assay).
(§9) 2. Reaction mixture (90 μL) chilled at 4° C. was added to each well, mixed and then incubate at 37° C. for 3 hrs.
(§10) 3. After incubation, the plate was chilled on ice, and passed through a DEAE-Filtermat using cell harvester. The filter was washed with 4.5% Na2HPO4 (20 see) and H2O (10 sec).
(§11) 4. The filter was dried at 95° C. for 15 min.
(§12) 5. 10 mL of scintilator was added and sealed.
(§13) 6. Radioactivity was measured by LKB Beta Plate scintillation spectroscopy.
(§14) 7. RT activity (cpm/mL) was calculated from average of three wells.

The subject of the next test is HIV-2 Rod. The description is as above. As to conditions: read-out: EC50 HIV-2 ROD. The procedure: as §1
{circle over (2)} Preparation of HIV-2 virus: HIV-2 Rod was infected to M8166 cells (1×10^6 cells). The cells were cultured in 10 mL RPMI medium supplemented with 10% fetal bovine serum in CO2 incubator at 37° C. After apparent giant cells were observed, the cells were removed by centrifugation and then the supernatant was filtrated by 0.45 μm filter, measured RT activity, and stored at −80° C. as HIV-2 stock virus.
as §3, §4, §5, §6, §7, §8, §9, §10, §11, §12, §13, §14

A further test concerns SIVmac MA239. Described as above. As to conditions: 120 h, RT activity of supernatant at 5 days postinfection. On the procedure: as §1
as §2, with “over (3)}” for “over (1)}”, “of SIVmac” for “of HIV-1”, “flask. SIVmac MA239” for “flask. HIV-1”, “μg), pMA239,” for “μg), pNL432,”, “to CEMX174” for “to M8166”, “as SIVmac” for “as HIV-1”
as §3, §4, §5, §6, §7, §8, §9, §10, §11, §12, §13, §14

Another test has as its system SIVagm SA212. Described as above. As to conditions: 120 h, RT activity of supernatant at 5 days postinfection. On the procedure: as §1
{circle over (4)} Preparation of SIVagm virus: SW480 cells were cultured in DMEM medium supplemented with 10% fetal bovine serum using 25 cm^2 flask. SIVagm SA212 infectious molecular DNA (40 μg), pSA212, transfected to the cells by calcium phosphate coprecipitation methods, and the supernatant (2 mL) at 2-3 days post-transfection was infected to M8166 cells (1×10^6 cells). The cells were cultured in 10 mL RPMI medium supplemented with 10% fetal bovine serum in CO2 incubator at 37° C. Every 3 days, the cells were separated from the supernatant by centrifugation and continued culture with new culture medium. The each supernatant was filtrated by 0.45 μm filter, measured RT activity, and stored at −80° C. as SIVagm stock virus.
as §3, §4, §5, §6, §7, §8, §9, §10, §11, §12, §13, §14

The test system of test [1] is feline immunodeficiency virus (FIV TM-2 strain). Put plainly: FIV antiviral assay in MYA-1 feline T cells, RT activity. As to conditions: T-cell, 240 h, FIV TM-2, MYA-1 cells, RT activity at 10 days postinfection. The procedure: (1) The serial 5 fold diluted samples were plated in 24 well microtiter plate. Feline T-cell lines (MYA-1 cells: 4×10^5 cells/well) and feline immunodeficiency virus (FIV TM-2 strain: 3000 cpm/well) were added to each well. The cells were cultured with 1.5 mL RPMI medium supplemented with 10% fetal bovine serum, 2 μg/mL polybrene, 100 unit/mL human recombinant IL-2 and 50 μM 2-mercaptoethanol in CO2 incubator at 37° C.
{circle over (1)} Preparation of FIV TM-2 virus: FIV TM-2 was infected to MYA-1 cells (1×10^6 cells). The cells were cultured in 10 mL RPMI medium supplemented with 10% fetal bovine serum, 2 μg/mL polybrene, 100 unit/ml human recombinant IL-2 and 50 μM 2-mercaptoethanol in CO2 incubator at 37° C. Every 1-2 days, the cells were separated from the supernatant by centrifugation and continued culture with new culture medium. Each of the supernatant was filtrated by 0.45 μm filter, measured RT activity, and stored at as −80° C. as FIV stock virus.
(2) Every 1-2 days, the supernatants were measured the amount of the virus by RT activity (as same as experimental example 2).

[2] abbreviates: Human immunodeficiency virus 1, 120 h, Molt-4 cells, RT activity of supernatant at 5 days postinfection.
The mark [3] stands for this setting: Human immunodeficiency virus 2, 120 h, Molt-4 cells, RT activity of supernatant at 5 days postinfection.

`Nc1ccn(C2CSC(CO)O2)c(=O)n1` (single isomer, unassigned; (-)) [Lamivudine, (−)-2′,3+-dideoxy-3′-thiacytidine]: the EC50 in the test on HIV (HTLV-IIIB strain) was found to be 38 ng/mL; with HIV-1 NL432 (setting [2]), 8.4 ng/mL (≈ 0.0366 µM); in the test on HIV-2 Rod (setting [3]), 22 ng/mL (≈ 0.096 µM); in the test with SIVmac MA239 it was 9.1 ng/mL (≈ 0.0397 µM); in the test with SIVagm SA212, 22 ng/mL (≈ 0.096 µM).
For the compound `O=C(C=C(O)c1nc[nH]n1)c1ccc(Cc2ccc(F)cc2)o1` [Compound I-16, 1-[5-(4-Fluorobenzyl)furan-2-yl]-3-hydroxy-3-(1H-1,2,4-triazol-3-yl)propenone], the EC50 in test [1] came to 300 ng/mL (≈ 0.958 µM); in the test with HIV-1 NL432 (setting [2]), 57 ng/mL (≈ 0.182 µM); in the test with HIV-2 Rod (setting [3]), 35 ng/mL (≈ 0.112 µM); in the test with SIVmac MA239, 57 ng/mL (≈ 0.182 µM); with SIVagm SA212, 44 ng/mL (≈ 0.14 µM).
As for `Cc1cn([C@H]2C=C[C@@H](CO)O2)c(=O)[nH]c1=O` [Stavudine], the EC50 was found to be 50 ng/mL with HIV (HTLV-IIIB strain); 6.1 ng/mL (≈ 0.0272 µM) with HIV-1 NL432 (Human immunodeficiency virus 1, MOLT-4, 120 h); 4.1 ng/mL (≈ 0.0183 µM) in the test with HIV-2 Rod (Human immunodeficiency virus 2, MOLT-4, 120 h); 3.4 ng/mL (≈ 0.0152 µM) in the test on SIVmac MA239; 4.5 ng/mL (≈ 0.0201 µM) in the test with SIVagm SA212.
In the case of `Cc1cn(C2CC(N=[N+]=[N-])C(CO)O2)c(=O)[nH]c1=O` (stereo not drawn) [Zidovudine, 3′-azido-3′-deoxycytimidine], the EC50 in test [1] turned out to be 48 ng/mL (≈ 0.18 µM); with HIV (HTLV-IIIB strain) it was 1.8 ng/mL; in the test on HIV-1 NL432 (setting [2]), 0.51 ng/mL (≈ 0.00191 µM); with HIV-2 Rod (setting [3]), 0.28 ng/mL (≈ 0.00105 µM); in the test on SIVmac MA239 it was 0.35 ng/mL (≈ 0.00131 µM); with SIVagm SA212, 0.36 ng/mL (≈ 0.00135 µM).
